Assay results from PubChem BioAssay AID179 (DTP/NCI, 2004).
“And” between values parts separate entries of the source, which are not always exact repeats. Equal entries are not always repeated. The source made the active and inactive calls.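 Rule for the calls: active = compounds giving half or more protection of infected cells from virus-caused growth loss, again on retest; inactive = the rest.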

Test system: CEM cells HIV-1 protection, formazan growth assay
Assay: NCI AIDS Antiviral Assay
Conditions: for IC50: measured here: growth of uninfected CEM cells
In short: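 Human CEM cells, uninfected and HIV-1-infected, received five drug concentrations, and growth was read by soluble formazan assay. Compounds giving at least 50% protection were retested; reproducible 100% protection defined confirmed active.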

| SMILES | EC50 [µM] | IC50 | outcome |
| --- | --- | --- | --- |
| Nc1nc(Cl)c(N)c(NCC2(CO)CC(OCc3ccccc3)C2)n1 (centres undefined) | > 20 | 2.14 µM | – |
| CCOC(=O)C1=NN(c2ccccc2)C(=O)/C1=C\n1c(=S)sc2ccccc21 | > 100 | 51.3 µM | – |
| CC1=CC2c3c(O)cc(-c4cc5ccc(O)cc5o4)cc3OC3(c4ccc(O)c5c4OC(C)(C)C=C5)Oc4cc(O)ccc4[C@H](C1)C23 (some centres undefined) | > 20.9 | 3.72 µM | – |
| COCC12CN(C)C3C4C(OC)C1C3(C(OC)CC2O)C1CC2(O)C(OC)C(O)C4(OC(C)=O)C1C2OC(=O)c1ccccc1 (centres undefined) | – | – | inactive |
| CC(C)[Si](OC1=CCC[C@H]2NC(=O)[C@@H](Cc3ccc([N+](=O)[O-])cc3)[C@@]12C)(C(C)C)C(C)C | > 200 | 20.4 µM | – |
| O=c1[nH]nc(Cc2ccccc2)n1-n1cnnc1 | > 200 | > 200 µM | – |
| S=C(S)N1CCN(c2ccccc2)CC1 | > 200 | > 200 µM | – |
| COc1nccnc1NS(=O)(=O)c1ccc(N)cc1 | > 200 | > 200 µM | – |
| Cc1nc2nn[nH]n2c(=O)c1CCO | > 200 | > 200 µM | – |
| O=C1CCC(C2(O)c3ccccc3-c3ccccc32)C(=O)N1 (centres undefined) | > 123 | > 123 µM | – |
| C=CCCC(=O)N1CCC(C(=O)OCC)C1=O (centres undefined) | > 200 | > 200 µM | – |
| C=C(C)[C@@H]1CC[C@]2(C(=O)OC)CC[C@]3(C)[C@H](CC[C@@H]4[C@@]5(C)CC[C@H](O)C(C)(C)[C@@H]5CC[C@]43C)[C@@H]12 | – | – | inactive |
| Nc1ncnc2c(C3OC(CO)C(O)C3O)nsc12 (centres undefined) | > 200 | – | – |
| c1cncc(CN2CCCCCC2)c1 | – | – | inactive |
| c1scc2c1COCCOCCOCCOCCOCCOCCOC2 | > 646 | > 646 µM | – |
| COc1ccc(/C=C/C(=O)CCN2CCN(CCC(=O)/C=C/c3ccc(OC)cc3)CC2)cc1 | > 151 | 1.58 µM | – |
| Cc1cc2c(cc1Cl)SC(NNC1=NCCN1)=NS2(=O)=O | > 200 | 115 µM | – |
| O=C(Nc1ccc(Cl)c(Cl)c1)C(=O)Nn1c(=S)[nH]c2ccccc2c1=O | > 437 | 257 µM | – |
| O=C(Nc1nc2ncn(CC(COc3ccccc3)OC(=O)c3ccccc3)c2c(=O)[nH]1)c1ccccc1 (centres undefined) | > 70.8 | > 70.8 µM | – |
| CC12CCC(=O)C=C1C=CC1C2CCC2(C)C1CCC21CCC(=O)O1 (centres undefined) | > 200 | 83.2 µM | – |
| COc1ccccc1NC(=O)c1nc2ccc([N+](=O)[O-])cc2nc1C | > 148 | > 148 µM | – |
| CCO[C@@H]1OC(=O)[C@H]2C(c3ccc(Cl)cc3Cl)=NO[C@@H]12 | > 22.9 | > 22.9 µM | – |

| SMILES | EC50 [µM] | IC50 | outcome |
| --- | --- | --- | --- |
| CC(=O)O[C@@H]1CC[C@]2(C)C3CC[C@]4(C)C(C(C)CCc5nc6ccccc6[nH]5)CCC4C3CC[C@@H]2C1 (some centres undefined) | > 50.1 | 15.5 µM | – |
| Fc1ccccc1C1CC(C(c2ccccc2)c2ccccc2)=Nc2ccccc2S1 (centres undefined) | > 6.46 | > 6.46 µM | – |
| CCOC(=O)CC(NCc1ccc(N=Cc2nc3ccc(C(F)(F)F)cc3nc2-c2ccccc2)cc1)C(=O)OCC (centres undefined) | > 200 | 162 µM | – |
| OC1C(O)C(O)C2(CO2)C(O)C1O (centres undefined) | > 200 | > 200 µM | – |
| C[C@]12CC(C#N)C(=O)C(O)=C1CC[C@@H]1C2CC[C@@]2(C)C1CC[C@@H]2O (some centres undefined) | – | – | inactive |
| N#CCCC(CCC#N)(CCC#N)[N+](=O)[O-] | > 200 | > 200 µM | – |
| CC1(C)CC(=O)C2=C(C1)S/C(=C1/SC3=C(S1)C(=O)CC(C)(C)C3)S2 | > 6.92 | > 6.92 µM | – |
| O=C1CSc2cc([N+](=O)[O-])ccc2N1 | > 123 | > 123 µM | – |
| O=C1OC(C2Cc3ccc4ccccc4c3C2=O)c2ccccc21 (centres undefined) | > 100 | 74.1 µM | – |
| NC1=NC2(COC(c3ccccc3)(c3ccccc3)c3ccccc3)OC(COC(c3ccccc3)(c3ccccc3)c3ccccc3)C(O)C2O1 (centres undefined) | > 200 | 12 µM | – |
| CN1C(=O)C2C(=O)N(Cc3ccccc3)CC(=O)N2c2cccnc21 (centres undefined) | > 200 | > 200 µM | – |
| COC1(C)CCC2(O)C(=O)OC3C(O)COC32O1 (centres undefined) | > 200 | > 200 µM | – |
| CSC1=N/C(=C\c2ccc(Cl)cc2)C(=O)N1CN1CCOCC1 | > 200 | 33.1 µM | – |
| O=[N+]([O-])c1cccc(/C=N/Nc2ccc(S(=O)(=O)O)cc2)c1 | > 724 | 646 µM | – |
| CC(=O)c1cccc2c1CC1(C2)Cc2ccc3c(c2C1=O)CCC3 (centres undefined) | > 200 | > 200 µM | – |
| CN(C)c1nc(N(C)C)nc(N(C)CN(C)c2ccccc2)n1 | > 100 | > 100 µM | – |
| CC(C)(C)COC(=O)C(C)(C)NC(=O)C(CC(=O)OCc1ccccc1)NC(=O)OCc1ccccc1 (centres undefined) | > 200 | 19.1 µM | – |
| NCCCc1nonc1C(=O)O | > 200 | > 200 µM | – |
| COC1OC(COCc2ccc(Cl)cc2)C(OCc2ccc(Cl)cc2)C1N=[N+]=[N-] (centres undefined) | – | – | inactive |
| COP(=O)(OC)C(NC=O)P(=O)(OC)OC | > 200 | > 200 µM | – |
| Cc1nc2c(=O)n(C)c(=O)nc-2n(CCO)c1C | > 100 | 83.2 µM | – |
| CC1=NN(C(=O)c2ccc(Cl)cc2)C(=O)/C1=C/c1cccc(O)c1 | > 7.94 | > 7.94 µM | – |

| SMILES | EC50 [µM] | IC50 | outcome |
| --- | --- | --- | --- |
| C/C(CC(=O)Nc1ccc(C)c(C)c1)=N\NC(N)=S | > 891 | 117 µM | – |
| O=C(CC(C(=O)c1cccs1)c1ccsc1)c1ccc(Cl)cc1 (centres undefined) | > 200 | 52.5 µM | – |
| COC1=CC(=O)c2c(O)c3c(c(O)c2C1=O)C=C(C)OC3O (centres undefined) | – | – | inactive |
| CCCCCCCCCCCCCNC1=C(O)c2ccccc2C(=O)C1=O | – | – | inactive |
| CC(=O)Nc1nc(Cl)c2ncn(C3CCCO3)c2n1 (centres undefined) | > 200 | 22.4 µM | – |
| O=C1C=CC2(CCCCCCC2=O)CC1 (centres undefined) | – | – | inactive |
| O=C1Cc2cn[nH]c2-c2ccccc2N1 | – | – | inactive |
| c1ccc([P+](CCCCCC[P+](c2ccccc2)(c2ccccc2)c2ccccc2)(c2ccccc2)c2ccccc2)cc1 | > 200 | 5.37 µM and 7.24 µM | – |
| Cc1cn(C2CC(CCN(O)CC3OC(n4cc(C)c(=O)[nH]c4=O)CC3O[Si](C)(C)C(C)(C)C)C(CO[Si](C)(C)C(C)(C)C)O2)c(=O)[nH]c1=O (centres undefined) | > 200 | 11.5 µM | – |
| CCOC(=O)C[C@@]12CCCN[C@]1(C)CCc1ccccc12 | – | – | inactive |
| COC(=O)C(C)(C)N=CN(C)C | > 1450 | > 1450 µM | – |
| CC/C=C\C/C=C\C/C=C\CCCCCCCC(=O)NC(CCC(N)=O)C(=O)O (centres undefined) | > 200 | 43.7 µM | – |
| CC(C)(C)N1CC1CNC(=O)C(=O)NCC1CN1C(C)(C)C (centres undefined) | > 200 | 1.35 µM | – |
| CCOP(=O)(OCC)C(=Cc1ccccc1)P(=O)(OCC)OCC | > 661 | 398 µM | – |
| Cc1nc2c(C)ccc([N+](=O)[O-])c2c(NCCCN(C)C)c1C | > 200 | 69.2 µM | – |
| O=C1CCCc2cc3c(cc21)CC1(C3)Cc2cc3c(cc2C1)C(=O)CCC3 | > 200 | 0.977 µM | – |
| OC(c1ccsc1)c1cc2ccccc2s1 (centres undefined) | > 200 | 107 µM | – |
| Oc1c(Cl)ccc2cccnc12 | > 20 | 0.676 µM | – |
| Nc1nc(N)c(-c2ccccc2)c(C(=O)Nc2nccs2)n1 | > 22.9 | > 22.9 µM | – |
| CC(C)CC1NC(CC(C)C)N2C(CC(C)C)N12 (centres undefined) | > 39.8 | > 39.8 µM | – |
| Clc1ccc(OCCSCCCCCCCCCCSCCOc2ccc(Cl)cc2)cc1 | > 7.24 | > 7.24 µM | – |
